The values below come from patent US10934310B2, “Inhibitors of Bruton's tyrosine kinase and method of their use” (JANSSEN PHARMACEUTICA NV, priority 2015, dated 2021).

Molecules are shown by their SMILES. Where only a bound is given, the exact number is not on record here.

Chain of unphosphorylated-BTK kinase domain (UP-BTK), GST-tagged human BTK (389-659aa) (Q06187 389-659): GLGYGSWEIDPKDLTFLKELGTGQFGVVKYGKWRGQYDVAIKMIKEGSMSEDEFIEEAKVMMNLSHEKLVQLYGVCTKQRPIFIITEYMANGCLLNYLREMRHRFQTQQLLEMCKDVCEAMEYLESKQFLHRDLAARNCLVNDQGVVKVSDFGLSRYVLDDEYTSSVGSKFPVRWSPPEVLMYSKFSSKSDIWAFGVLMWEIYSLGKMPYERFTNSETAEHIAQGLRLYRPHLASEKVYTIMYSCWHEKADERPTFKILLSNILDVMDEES

One test has as its target unphosphorylated-BTK kinase domain (UP-BTK), GST-tagged human BTK (389-659aa) (Homo sapiens (Human), UniProt Q06187). The experiment in a line: BTK Kinase Lanthascreen Binding Assay. To be noted: Lanthascreen binding, 60 minutes incubation; pIC50 = negative log of the IC50 in molar. The procedure: BTK Kinase Lanthascreen Binding Assay:
A BTK kinase lanthascreen binding assay monitors compound binding to unphosphorylated-BTK kinase domain (UP-BTK), by competing with a fluorescent labeled tracer. […] Data were analyzed using Xlfit™ version 5.3 from ID Business Solutions (Guildford), Microsoft Excel add-in. pIC50 refers to the negative log of the IC50 in molar.
(In general: Time-resolved FRET reads energy transfer from a long-lived donor to a nearby acceptor.)
As to `CC(=O)N[C@H]1CCCC[C@H]1NC(=O)c1sc2nccc3c2c1NC(=O)N3c1cnc(Oc2ccccc2)cc1C` (single isomer, unassigned) [Example 377, N-((1R,2S)-2-Acetamidocyclohexyl)-5-(*S)-(4-methyl-6-phenoxypyridin-3-yl)-4-oxo-4,5-dihydro-3H-1-thia-3,5,8-triazaacenaphthylene-2-carboxamide], the “BTK_I_binding pIC50” value amounted to 6.83.

Take `CC(=O)N[C@H]1CCC[C@H]1NC(=O)c1sc2nccc3c2c1NC(=O)N3c1cnc(Oc2ccccc2)cc1C` (single isomer, unassigned) [Example 378, N-((1R,2S)-2-Acetamidocyclopentyl)-5-(*S)-(4-methyl-6-phenoxypyridin-3-yl)-4-oxo-4,5-dihydro-3H-1-thia-3,5,8-triazaacenaphthylene-2-carboxamide]: the “BTK_I_binding pIC50” value was determined as 6.39.

On to `CCC(=O)N[C@H]1CCCC[C@H]1NC(=O)c1sc2nccc3c2c1NC(=O)N3c1ccc(Oc2ccccc2)cc1C` (single isomer, unassigned) [Example 380, 5-(*S)-(2-Methyl-4-phenoxyphenyl)-4-oxo-N-((1R,2S)-2-propionamidocyclohexyl)-4,5-dihydro-3H-1-thia-3,5,8-triazaacenaphthylene-2-carboxamide], for which the “BTK_I_binding pIC50” value was determined as 7.20.

Consider `C=CC(=O)N[C@@H]1CCC[C@H]1NC(=O)c1sc2nccc3c2c1NC(=O)N3c1cnc(CC(C)C)cc1C` (single isomer, unassigned) [Example 382, N-((1R,2R)-2-Acrylamidocyclopentyl)-5-(*S)-(6-isobutyl-4-methylpyridin-3-yl)-4-oxo-4,5-dihydro-3H-1-thia-3,5,8-triazaacenaphthylene-2-carboxamide], for which the “BTK_I_binding pIC50” value is reported as 7.68.

As to `CCC(=O)N[C@H]1CCC[C@@H](NC(=O)c2sc3nccc4c3c2NC(=O)N4c2cnc(Oc3ccccc3)cc2C)C1` (single isomer, unassigned) [Example 385, 5-(*S)-(4-Methyl-6-phenoxypyridin-3-yl)-4-oxo-N-((1R,3S)-3-propionamidocyclohexyl)-4,5-dihydro-3H-1-thia-3,5,8-triazaacenaphthylene-2-carboxamide], the “BTK_I_binding pIC50” value is 7.98.

Regarding `CCC(=O)N[C@@H]1CC[C@@H](NC(=O)c2sc3nccc4c3c2NC(=O)N4c2cnc(Oc3ccccc3)cc2C)C1` (single isomer, unassigned) [Example 388, 5-(*S)-(4-Methyl-6-phenoxypyridin-3-yl)-4-oxo-N-((1R,3R)-3-propionamidocyclopentyl)-4,5-dihydro-3H-1-thia-3,5,8-triazaacenaphthylene-2-carboxamide], the “BTK_I_binding pIC50” value is recorded as 7.64.

With `CC(=O)N[C@H]1CC[C@@H](NC(=O)c2sc3nccc4c3c2NC(=O)N4c2cnc(Oc3ccccc3)cc2C)CC1` (single isomer, unassigned) [Example 389, N-((1S,4S)-4-Acetamidocyclohexyl)-5-(*S)-(4-methyl-6-phenoxypyridin-3-yl)-4-oxo-4,5-dihydro-3H-1-thia-3,5,8-triazaacenaphthylene-2-carboxamide], the “BTK_I_binding pIC50” value was determined as 7.30.

With `CCC(=O)N[C@@H]1CC[C@H](NC(=O)c2sc3nccc4c3c2NC(=O)N4c2cnc(Oc3ccccc3)cc2C)C1` (single isomer, unassigned) [Example 390, 5-(*S)-(4-Methyl-6-phenoxypyridin-3-yl)-4-oxo-N-((1S,3R)-3-propionamidocyclopentyl)-4,5-dihydro-3H-1-thia-3,5,8-triazaacenaphthylene-2-carboxamide], the “BTK_I_binding pIC50” value is 8.04.

As for `CC(=O)N[C@@H]1CC[C@H](NC(=O)c2sc3nccc4c3c2NC(=O)N4c2cnc(Oc3ccccc3)cc2C)C1` (single isomer, unassigned) [Example 391, N-((1S,3R)-3-Acetamidocyclopentyl)-5-(*S)-(4-methyl-6-phenoxypyridin-3-yl)-4-oxo-4,5-dihydro-3H-1-thia-3,5,8-triazaacenaphthylene-2-carboxamide], the “BTK_I_binding pIC50” value was 7.86.

Turning to `CC(=O)N[C@@H]1CC[C@@H](NC(=O)c2sc3nccc4c3c2NC(=O)N4c2cnc(Oc3ccccc3)cc2C)C1` (single isomer, unassigned) [Example 392, N-((1R,3R)-3-Acetamidocyclopentyl)-5-(*S)-(4-methyl-6-phenoxypyridin-3-yl)-4-oxo-4,5-dihydro-3H-1-thia-3,5,8-triazaacenaphthylene-2-carboxamide], the “BTK_I_binding pIC50” value is 7.34.

Consider `Cc1cc(OC2CCCC2)ncc1N1C(=O)Nc2c(C(=O)N[C@@H]3CC[C@H](N)C3)sc3nccc1c23` (single isomer, unassigned) [Example 394, N-((1R,3S)-3-Aminocyclopentyl)-5-(*S)-(6-(cyclopentyloxy)-4-methylpyridin-3-yl)-4-oxo-4,5-dihydro-3H-1-thia-3,5,8-triazaacenaphthylene-2-carboxamide], for which the “BTK_I_binding pIC50” value was found to be 6.70.

Turning to `CC(=O)N[C@H]1CC[C@H](NC(=O)c2sc3nccc4c3c2NC(=O)N4c2cnc(Oc3ccccc3)cc2C)C1` (single isomer, unassigned) [Example 395, N-((1S,3S)-3-Acetamidocyclopentyl)-5-(*S)-(4-methyl-6-phenoxypyridin-3-yl)-4-oxo-4,5-dihydro-3H-1-thia-3,5,8-triazaacenaphthylene-2-carboxamide], the “BTK_I_binding pIC50” value is given as 6.66.

In the case of `Cc1cc(OCC(C)C)ncc1N1C(=O)Nc2c(C(=O)N[C@@H]3CCC[C@@H]3N)sc3nccc1c23` (single isomer, unassigned) [Example 397, N-((1R,2S)-2-Aminocyclopentyl)-5-(*S)-(6-isobutoxy-4-methylpyridin-3-yl)-4-oxo-4,5-dihydro-3H-1-thia-3,5,8-triazaacenaphthylene-2-carboxamide], the “BTK_I_binding pIC50” value is 6.62.

For the compound `CCC(=O)N[C@H]1CC[C@H](NC(=O)c2sc3nccc4c3c2NC(=O)N4c2cnc(Oc3ccccc3)cc2C)C1` (single isomer, unassigned) [Example 399, 5-(*S)-(4-Methyl-6-phenoxypyridin-3-yl)-4-oxo-N-((1S,3S)-3-propionamidocyclopentyl)-4,5-dihydro-3H-1-thia-3,5,8-triazaacenaphthylene-2-carboxamide], the “BTK_I_binding pIC50” value was 6.51.

As for `CC(=O)N[C@H]1CCC[C@H](NC(=O)c2sc3nccc4c3c2NC(=O)N4c2cnc(Oc3ccccc3)cc2C)C1` (single isomer, unassigned) [Example 400, N-((1S,3S)-3-Acetamidocyclohexyl)-5-(*S)-(4-methyl-6-phenoxypyridin-3-yl)-4-oxo-4,5-dihydro-3H-1-thia-3,5,8-triazaacenaphthylene-2-carboxamide], the “BTK_I_binding pIC50” value came out at 6.46.

Take `CCC(=O)N[C@H]1CCC[C@H](NC(=O)c2sc3nccc4c3c2NC(=O)N4c2cnc(Oc3ccccc3)cc2C)C1` (single isomer, unassigned) [Example 402, 5-(*S)-(4-Methyl-6-phenoxypyridin-3-yl)-4-oxo-N-((1S,3S)-3-propionamidocyclohexyl)-4,5-dihydro-3H-1-thia-3,5,8-triazaacenaphthylene-2-carboxamide]: the “BTK_I_binding pIC50” value is 6.38.

Turning to `CC(=O)N[C@H]1CC[C@@H](NC(=O)c2sc3nccc4c3c2NC(=O)N4c2cnc(Oc3ccccc3)cc2C)C1` (single isomer, unassigned) [Example 403, N-((1R,3S)-3-Acetamidocyclopentyl)-5-(*S)-(4-methyl-6-phenoxypyridin-3-yl)-4-oxo-4,5-dihydro-3H-1-thia-3,5,8-triazaacenaphthylene-2-carboxamide], the “BTK_I_binding pIC50” value was 6.26.

Take `C=CC(=O)N[C@@H]1CCCC[C@H]1NC(=O)c1sc2nccc3c2c1NC(=O)N3c1cnc(CC(C)C)cc1C` (single isomer, unassigned) [Example 404, N-((1R,2R)-2-Acrylamidocyclohexyl)-5-(*S)-(6-isobutyl-4-methylpyridin-3-yl)-4-oxo-4,5-dihydro-3H-1-thia-3,5,8-triazaacenaphthylene-2-carboxamide]: the “BTK_I_binding pIC50” value is 6.21.

Regarding `Cc1cc(OCC(C)C)ncc1N1C(=O)Nc2c(C(=O)N[C@@H]3CC[C@H](N)C3)sc3nccc1c23` (single isomer, unassigned) [Example 405, N-((1R,3S)-3-Aminocyclopentyl)-5-(*S)-(6-isobutoxy-4-methylpyridin-3-yl)-4-oxo-4,5-dihydro-3H-1-thia-3,5,8-triazaacenaphthylene-2-carboxamide], the “BTK_I_binding pIC50” value amounted to 6.16.

On to `CC(=O)NC1CCC[C@H](NC(=O)c2sc3nccc4c3c2NC(=O)N4c2cnc(Oc3ccccc3)cc2C)C1` (single isomer, unassigned) [Example 407, N-((1S,3R)-3-Acetamidocyclohexyl)-5-(*S)-(4-methyl-6-phenoxypyridin-3-yl)-4-oxo-4,5-dihydro-3H-1-thia-3,5,8-triazaacenaphthylene-2-carboxamide], for which the “BTK_I_binding pIC50” value came out at 6.05.

Still in this test, the particulars now being: read-out: BTK_I_binding pIC50 (converted).
Regarding `CCC(=O)N[C@H]1CC[C@H](NC(=O)c2sc3nccc4c3c2NC(=O)N4c2ccc(Oc3ccccc3)nc2C)C1` (single isomer, unassigned) [Example 409, 5-(*S)-(2-Methyl-6-phenoxypyridin-3-yl)-4-oxo-N-((1S,3S)-3-propionamidocyclopentyl)-4,5-dihydro-3H-1-thia-3,5,8-triazaacenaphthylene-2-carboxamide], the IC50 was greater than 1000 nM.

For `CC(=O)N[C@H]1CC[C@H](NC(=O)c2sc3nccc4c3c2NC(=O)N4c2ccc(Oc3ccccc3)nc2C)C1` (single isomer, unassigned) [Example 410, N-((1S,3S)-3-Acetamidocyclopentyl)-5-(*S)-(2-methyl-6-phenoxypyridin-3-yl)-4-oxo-4,5-dihydro-3H-1-thia-3,5,8-triazaacenaphthylene-2-carboxamide], the IC50 is greater than 1000 nM.
